Measurements as given in US5264556A, “Monoclonal antibodies for measuring okadaic acid” (priority 1992, dated 1993).

How the values were obtained:
6/50 antibody = experiment: Cross-reactivity of 6/50 antibody with OA analogues in competitive ELISA (FIG. 9); type: binding, mouse; settings: toxins in 40% MEOH
Method: FIG. 9A Assay wells were coated with OA and incubated with a fixed concentration of 6/50 IgG and varying amounts of each toxin in 40% MEOH.
FIG 9B & 9C Assay wells were coated with purified antiidiotypic antibody (1/59) F(ab')2 fragments (5 μg/ml) and incubated with a fixed concentration of mAb 6/50 (100 ng/ml) and varying amounts of OA analogues in 40% MEOH.
In FIG. 9A, the assay wells were coated with OA and incubated with a fixed concentration of 6/50 IgG and varying amounts of each toxin in 40% MEOH. Bound antibody was detected with HRP-conjugated anti-mouse IgG. Toxins used in this competitive ELISA were generously donated by Dr. Takeshi Yasumoto (Tohoku University, Japan).
For FIG. 9B and 9C, the assay wells were coated with purified anti-idiotypic (1/59) F(ab')2 (5μg/ml) and incubated with a fixed concentration of antibody 6/50 (100 ng/ml) and varying amounts of okadaic acid analogues in 40% MEOH. Bound 6/50 IgG was detected with HRP-conjugated anti-mouse IgG Fc fragment specific antisera.

[1] = molecular target: T1, protein phosphatase-2A (PP2A) catalytic subunit (Oryctolagus cuniculus, UniProt P67777); experiment: Standard phosphorylase a phosphatase assay, PP2A; type: biochemical, rabbit; settings: standard commercial preparation of okadaic acid; read-out: IC50 for PP2A inhibition
T1 construct: Homogeneous PP-1 and -2A catalytic subunits are purified from rabbit skeletal muscle; from tissue; host or cells: rabbit skeletal muscle
Method: (§1) The biological activity of OA was assayed by the ability of this toxin to inhibit dephosphorylation of ^32 P-radiolabelled glycogen phosphorylase (E.C. 2.4.1.1) by protein phosphatases (E.C. 3.1.3.16) in the standard phosphorylase phosphatase assay.
(§2) Phosphorylase (50 mM) is dialyzed extensively against NaF (15 mM) to block endogenous phosphatase activity. The protein is diluted to 3 mg/ml (30 pmol/μl ) in Tris HCl (50 mM, pH 7.0) containing ethylenediamine tetra-acetic acid (EDTA, 0.1 mM), bovine serum albumin (1 mg/ml), 2-mercaptoethanol (0.2% v/v) and caffeine (15mM). An incubation comprising 10 μl protein phosphatase-1 or -2A (PP2A, 1 mU/ml in Tris HCl, pH 7.0) and 10 μl phosphatase inhibitor (in Tris HCl, pH 7.0) is carried out for 10 minutes at 30° C. An aliquot (10 μl) of phosphorylase (30 pmol/μl, specific radioactivity >0.6×10^6 dpm/nmol) is added to start the reaction, which is terminated after 10 minutes by adding 200 μl trichloroacetic acid (20% w/v,TCA). The suspension is vortexed, stood on ice for 1 minute and centrifuged at 15,000g for 2 minutes. An aliquot (200 μl) of supernatant is added to 1 ml scintillant and counted. One milliunit(mU) of protein phosphatase activity releases 1 nmol phosphate from phosphorylase per minute. […]

[2] = test system: F(ab')2 fragments of 6/50 IgG; experiment: Competition ELISA, Example II: free OA versus 1/59 IgG for binding to solid-phase 6/50 F(ab')2; parameters: species or system mouse; settings: free OA 0-10 μg/ml in 10% MeOH, 1/59 500 ng/ml
Method: In the reverse assay, 96-well microtiter plates are coated with 100 μl of 10 μg/ml of F(ab')2 fragments of 6/50 IgG in 0.05M sodium carbonate bicarbonate buffer, pH 9.6, overnight at 4° C. The unbound F(ab')2 fragments are washed off with Tris-buffered saline and the remaining binding sites are saturated with 200 μl of 1% powdered-milk in Tris-saline (TS-MILK) for one hour at 37° C. After washing, the wells are incubated simultaneously with 50 μl of a fixed amount of anti-idiotypic IgG 1/59 (500 ng/ml) and 50 μl of free OA diluted in 10% methanol (MeOH) at increasing concentrations (0-10 μg/ml) for one hour at 37° C. After the unbound antibody and antigen are washed off, 100 μl of a peroxidase conjugated goat anti-mouse IgG Fc-fragment-specific antiserum is added for one hour at 37° C.
The colorimetric reaction is developed upon the addition of 0.03% H2 O2 in 0.1 M sodium citrate buffer, pH 7.0, containing 0.1% OPD. The reaction is stopped with 3 N H2 SO4 and the color intensity measured at a wavelength of 492 nm using a BioRad® ELISA reader.

Solubility of OA = type: physicochemical
Source text: It is obvious that methanol has a deleterious effect on 6/50 IgG binding to OA since the sensitivity of OA detection in the presence of 40% MeOH drops considerably when compared with 10% MeOH content. The addition of 10% MeOH seems to be the optimal for this assay. Absence of MeOH decreases OA solubility and thus the slope of the standard curve.

6/50 IgG = experiment: Competitive ELISA, Example IV: solid-phase OA versus free OA for binding to 6/50 IgG; parameters: species or system mouse; settings: OA standards 0-30 ng/ml in 10% MeOH
Method: This assay is based on the competition between solid-phase attached OA and free OA (analyte) for binding to a limited number of binding sites on 6/50 IgG in solution.
Thus, 96-well microtiter plates are coated with 100 μl of OA-OVAL (10 μg/ml) in 0.05M sodium carbonate bicarbonate buffer, pH 9.6, overnight at 4° C. The unbrund OA-OVAL is washed off with Tris-buffered saline and the remaining binding sites are saturated with 200 μl of TS-MILK for one hour at 37° C. After washing, the wells are incubated simultaneously with 50 μl of OA standards (0-30 ng/ml) diluted in 10% MeOH and applied in the presence of 50 μl of limiting amounts of 6/50 IgG for one hour at 37° C. After the unbound antibody and antigen are washed off, 100 μl of a peroxidase conjugated goat anti-mouse IgG antiserum diluted in TS-MILK is added and incubated for one hour at 37° C.
Ihe colorimetric reaction is developed upon the add:tion of 0.03% H2 O2 in 0.1 M sodium citrate buffer, pH 7.0, containing 0.1% OPD. The reaction is stopped with 3 N H2 SO4 and the color intensity measured at a wavelength of 492 nm using a BioRad ELISA reader.

[3] = molecular target: protein phosphatase-1 (PP1) catalytic subunit; experiment: Standard phosphorylase a phosphatase assay, PP1; type: biochemical, rabbit; settings: standard commercial preparation of okadaic acid; read-out: IC50 for PP1 inhibition
Method: as §1, §2

T1 sequence (P67777 whole entry): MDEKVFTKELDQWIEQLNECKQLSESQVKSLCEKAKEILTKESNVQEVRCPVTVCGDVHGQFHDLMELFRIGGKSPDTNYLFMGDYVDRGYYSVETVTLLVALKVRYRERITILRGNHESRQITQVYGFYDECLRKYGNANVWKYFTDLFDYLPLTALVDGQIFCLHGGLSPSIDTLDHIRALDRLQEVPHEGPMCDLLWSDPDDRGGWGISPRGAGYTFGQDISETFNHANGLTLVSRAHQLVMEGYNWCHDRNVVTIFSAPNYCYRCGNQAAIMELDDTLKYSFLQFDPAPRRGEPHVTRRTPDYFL

SMILES | binding to 6/50 antibody relative to okadaic acid (cross-reactivity) (6/50 antibody) | IC50 [1] [nM] | inhibition of 1/59 IgG binding to solid-phase bound 6/50 IgG F(ab')2 [2] | solubility (Solubility of OA) | competition with solid-phase fixed OA for binding to 6/50 (6/50 IgG) | IC50 [3] [nM]
C=C1C(O)C2OC3(CCC(C=CC(C)C4CC(C)=CC5(OC(CC(C)(O)C(=O)O)CCC5O)O4)O3)CCC2OC1C(O)CC(C)C1OC2(CCC1C)OCCCC2C (stereo not shown) [DTX-1, 35-methyl-okadaic acid] | significantly lower affinity | – | – | – | – | –
C=C1C(C(CC(C)C2OC3(CCCCO3)CCC2C)OC(C)=O)OC2CCC3(CCC(C=CC(C)C4CC(C)=CC5(OC(CC(C)(OC(C)=O)C(=O)O)CCC5OC(C)=O)O4)O3)OC2C1OC(C)=O (stereo not shown) [tetra acetyl okadaic acid] | significantly lower affinity | – | – | – | – | –
C=C1[C@@H](O)[C@@H]2O[C@]3(CC[C@H](/C=C/[C@@H](C)[C@@H]4CC(C)=C[C@@]5(O[C@H](C[C@@](C)(O)C(=O)O)CC[C@H]5O)O4)O3)CC[C@H]2O[C@@H]1[C@@H](O)C[C@H](C)[C@H]1O[C@@]2(CCCCO2)CC[C@H]1C [okadaic acid] | – | 0.2 | clearly inhibited | only soluble in the presence of organic solvents | dose-dependent manner | 19
